Laboratory results from PubChem BioAssay (NCI).
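All cell lines were grown in 96-well plates and treated with compound for 48 hours. Definition used: TGI = concentration required for complete inhibition of growth.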

Assays:
Assay in all cases: growth of human tumour cells (NCI), 48 h
DMS 273 small cell lung = test system: DMS 273 small cell lung
LOX IMVI melanoma = test system: LOX IMVI melanoma
NCI-H23 lung = test system: NCI-H23 lung
HCT-116 colon = test system: HCT-116 colon
SK-MEL-28 melanoma = test system: SK-MEL-28 melanoma
CAKI-1 renal = test system: CAKI-1 renal
SK-MEL-2 melanoma = test system: SK-MEL-2 melanoma
OVCAR-4 ovarian = test system: OVCAR-4 ovarian
SK-OV-3 ovarian = test system: SK-OV-3 ovarian
SF-539 CNS = test system: SF-539 CNS
UO-31 renal = test system: UO-31 renal
HOP-92 NSCLC = test system: HOP-92 NSCLC
SF-268 CNS = test system: SF-268 CNS
NCI-H522 lung = test system: NCI-H522 lung
HCT-15 colon = test system: HCT-15 colon
HL-60(TB) leukemia = test system: HL-60(TB) leukemia
K-562 leukemia = test system: K-562 leukemia
786-0 renal = test system: 786-0 renal
SR leukemia = test system: SR leukemia
U251 CNS = test system: U251 CNS
UACC-62 melanoma = test system: UACC-62 melanoma
HCC-2998 colon = test system: HCC-2998 colon
A549 NSCLC = test system: A549 NSCLC
RPMI-8226 leukemia = test system: RPMI-8226 leukemia
OVCAR-3 ovarian = test system: OVCAR-3 ovarian
MALME-3M melanoma = test system: MALME-3M melanoma
SK-MEL-5 melanoma = test system: SK-MEL-5 melanoma
M14 melanoma = test system: M14 melanoma
SNB-75 CNS = test system: SNB-75 CNS
EKVX NSCLC = test system: EKVX NSCLC
DLD-1 colon = test system: DLD-1 colon
SN12C renal = test system: SN12C renal
TK-10 renal = test system: TK-10 renal
LXFL 529 NSCLC = test system: LXFL 529 NSCLC
M19-MEL melanoma = test system: M19-MEL melanoma
COLO 205 colon = test system: COLO 205 colon
IGROV1 ovarian = test system: IGROV1 ovarian
MOLT-4 leukemia = test system: MOLT-4 leukemia
OVCAR-8 ovarian = test system: OVCAR-8 ovarian
SNB-78 CNS = test system: SNB-78 CNS
NCI-H226 lung = test system: NCI-H226 lung
NCI-H460 lung = test system: NCI-H460 lung
HOP-62 NSCLC = test system: HOP-62 NSCLC
SNB-19 CNS = test system: SNB-19 CNS
SW-620 colon = test system: SW-620 colon
XF 498 CNS = test system: XF 498 CNS
SF-295 CNS = test system: SF-295 CNS
CCRF-CEM leukemia = test system: CCRF-CEM leukemia
ACHN renal = test system: ACHN renal
KM12 colon = test system: KM12 colon
KM20L2 colon = test system: KM20L2 colon
RXF 393 renal = test system: RXF 393 renal
OVCAR-5 ovarian = test system: OVCAR-5 ovarian
DMS 114 small cell lung = test system: DMS 114 small cell lung
HOP-18 NSCLC = test system: HOP-18 NSCLC
UACC-257 melanoma = test system: UACC-257 melanoma
HT29 colon = test system: HT29 colon
A498 renal = test system: A498 renal
RXF-631 renal = test system: RXF-631 renal

COc1cccc(/C(Cl)=C(\C=O)c2cccc(OC)c2)c1
TGI (DMS 273 small cell lung): 28.5 µM | TGI (LOX IMVI melanoma): 20.3 µM | TGI (NCI-H23 lung): 22.7 µM | TGI (HCT-116 colon): 15 µM | TGI (SK-MEL-28 melanoma): 25.5 µM | TGI (CAKI-1 renal): 70 µM | TGI (SK-MEL-2 melanoma): 32.7 µM | TGI (OVCAR-4 ovarian): 55.3 µM | TGI (SK-OV-3 ovarian): 41.7 µM | TGI (SF-539 CNS): 37.1 µM | TGI (UO-31 renal): 68.1 µM | TGI (HOP-92 NSCLC): 36 µM | TGI (SF-268 CNS): 21.2 µM | TGI (NCI-H522 lung): 11.4 µM | TGI (HCT-15 colon): 20.1 µM | TGI (HL-60(TB) leukemia): 12.5 µM | TGI (K-562 leukemia): 46 µM | TGI (786-0 renal): 38 µM | TGI (SR leukemia): 39.5 µM | TGI (U251 CNS): 22.2 µM | TGI (UACC-62 melanoma): 18.8 µM | TGI (HCC-2998 colon): 30.5 µM | TGI (A549 NSCLC): 40.8 µM | TGI (RPMI-8226 leukemia): 45.1 µM | TGI (OVCAR-3 ovarian): 29.1 µM | TGI (MALME-3M melanoma): 12.8 µM | TGI (SK-MEL-5 melanoma): 23.8 µM | TGI (M14 melanoma): 26.1 µM | TGI (SNB-75 CNS): 40.5 µM | TGI (EKVX NSCLC): 38.7 µM | TGI (DLD-1 colon): 29.1 µM | TGI (SN12C renal): 34.7 µM | TGI (TK-10 renal): 51.2 µM | TGI (LXFL 529 NSCLC): 20.9 µM | TGI (M19-MEL melanoma): 29 µM | TGI (COLO 205 colon): 24.2 µM | TGI (IGROV1 ovarian): 47.8 µM | TGI (MOLT-4 leukemia): 78.3 µM | TGI (OVCAR-8 ovarian): 30.5 µM | TGI (SNB-78 CNS): 30 µM | TGI (NCI-H226 lung): 24.8 µM | TGI (NCI-H460 lung): 26.4 µM | TGI (HOP-62 NSCLC): 30.1 µM | TGI (SNB-19 CNS): 38.2 µM | TGI (SW-620 colon): 19.5 µM | TGI (XF 498 CNS): 27.1 µM | TGI (SF-295 CNS): 35.6 µM | TGI (CCRF-CEM leukemia): 28.8 µM | TGI (ACHN renal): 25.8 µM | TGI (KM12 colon): 26.3 µM | TGI (KM20L2 colon): 47.8 µM | TGI (RXF 393 renal): 25.1 µM | TGI (OVCAR-5 ovarian): 38 µM | TGI (DMS 114 small cell lung): 16.4 µM | TGI (HOP-18 NSCLC): 41.9 µM | TGI (UACC-257 melanoma): 42.4 µM | TGI (HT29 colon): 24.9 µM | TGI (A498 renal): 36.3 µM

C[Si](C)(C)C(CCCCSc1ccccc1)(Sc1ccccc1)Sc1ccccc1
TGI (DMS 273 small cell lung): > 100 µM | TGI (LOX IMVI melanoma): > 100 µM | TGI (NCI-H23 lung): > 100 µM | TGI (HCT-116 colon): > 100 µM | TGI (SK-MEL-28 melanoma): > 100 µM | TGI (CAKI-1 renal): > 100 µM | TGI (SK-MEL-2 melanoma): > 100 µM | TGI (OVCAR-4 ovarian): > 100 µM | TGI (SK-OV-3 ovarian): > 100 µM | TGI (SF-539 CNS): > 100 µM | TGI (UO-31 renal): > 100 µM | TGI (HOP-92 NSCLC): > 100 µM | TGI (SF-268 CNS): > 100 µM | TGI (HCT-15 colon): > 100 µM | TGI (HL-60(TB) leukemia): > 100 µM | TGI (K-562 leukemia): > 100 µM | TGI (786-0 renal): > 100 µM | TGI (SR leukemia): > 100 µM | TGI (U251 CNS): > 100 µM | TGI (UACC-62 melanoma): > 100 µM | TGI (HCC-2998 colon): > 100 µM | TGI (A549 NSCLC): > 100 µM | TGI (RPMI-8226 leukemia): > 100 µM | TGI (SK-MEL-5 melanoma): > 100 µM | TGI (RXF-631 renal): > 100 µM | TGI (SNB-75 CNS): > 100 µM | TGI (EKVX NSCLC): > 100 µM | TGI (DLD-1 colon): > 100 µM | TGI (SN12C renal): > 100 µM | TGI (TK-10 renal): > 100 µM | TGI (LXFL 529 NSCLC): > 100 µM | TGI (M19-MEL melanoma): > 100 µM | TGI (COLO 205 colon): > 100 µM | TGI (MOLT-4 leukemia): > 100 µM | TGI (OVCAR-8 ovarian): > 100 µM | TGI (SNB-78 CNS): > 100 µM | TGI (NCI-H460 lung): > 100 µM | TGI (SNB-19 CNS): > 100 µM | TGI (SW-620 colon): > 100 µM | TGI (XF 498 CNS): > 100 µM | TGI (SF-295 CNS): > 100 µM | TGI (CCRF-CEM leukemia): > 100 µM | TGI (ACHN renal): > 100 µM | TGI (KM12 colon): > 100 µM | TGI (RXF 393 renal): > 100 µM | TGI (DMS 114 small cell lung): > 100 µM | TGI (UACC-257 melanoma): > 100 µM | TGI (A498 renal): > 100 µM
